Where no end group is shown, it is not given here.
Columns and labels:
[1] = test system: Acinetobacter baumannii (ATCC 13304); assay type: cell-based; conditions: for Reduction in MIC against A. baumannii compared to hylin-Pul3: versus parent peptide hylin-Pul3
Method: (§1) Hylin-Pul3 and six derivatives (dHP3-31, dHP3-50, dHP3-50.137, dHP3-50.190, dHP3-84, and dHP3-84.39) were tested against two Gram-positive bacteria, Staphylococcus aureus (ATCC 25923) and Streptococcus mutans (ATCC 25175), as well as three Gram-negative bacteria: Escherichia coli (ATCC 25922), Klebsiella pneumoniae (ATCC 13883), and Acinetobacter baumannii (ATCC 13304). The minimal inhibitory concentration (MIC) was determined using the microbroth dilution.
(§2) The peptides were serially diluted in concentrations ranging 128 to 0.25 μM, with gentamicin serving as a positive control, which was serially diluted to concentrations of 20 to 0.04 μM. Bacterial cultures were prepared in Mueller–Hinton (MH) medium to achieve a final inoculum concentration of 5 × 10^5 CFU/mL. […] All tests were performed in duplicate and repeated across three independent experiments.

[2] = test system: Escherichia coli (ATCC 25922); assay type: cell-based; conditions: for Reduction in MIC against E. coli compared to hylin-Pul3: versus parent peptide hylin-Pul3
Method: as §1, §2

[3] = test system: Klebsiella pneumoniae (ATCC 13883); assay type: cell-based
Method: as §1, §2

[4] = test system: Staphylococcus aureus (ATCC 25923); assay type: cell-based
Method: as §1, §2

[5] = test system: Streptococcus mutans (ATCC 25175); assay type: cell-based
Method: as §1, §2

[6] = test system: Varicellovirus suidalpha1; assay type: cell-based; conditions: hylin-Pul3 at 20 μg/mL (10.8 μM), dHP3-84 at 75 μg/mL (34.5 μM); Vero monolayers, 90 min adsorption then 72 h at 37 °C, plaque titer, duplicate
Method: Antiviral activity assays were performed following a previously described protocol with slight modifications. The efficacy of the peptide compounds was assessed at different stages of the viral lifecycle, including adsorption, penetration, and intracellular replication. The hylin-Pul3 and dHP3-84 peptides were tested at non-cytotoxic concentrations of 20 μg/mL (10.8 μM) and 75 μg/mL (34.5 μM), respectively. Vero cell monolayers (African green monkey kidney cells) were cultured in 24-well plates and exposed to the peptide solutions along with serial 10-fold dilutions of Varicellovirus suidalpha1, formerly known as Herpes suis virus type 1 (HSV-1). The assays were performed in duplicate. […] The viral plaques that formed on the Vero cells were stained (1% crystal violet) and the viral titers were determined. The percentage viral inhibition was calculated by comparing the reduction in viral titer between the treatment and control groups. This was determined using the following formula: (2) % viral inhibition=100−A/B×100 where “A” represents the viral titer expressed in PFU/mL (Plaque-Forming Units per milliliter) obtained in the treated cultures and “B” is the viral titer expressed in PFU/mL obtained in the untreated cultures.

Vero cells = assay type: cell-based, African green monkey; conditions: for CC50, concentration inducing 50% cell death in Vero cells / Cytotoxicity in Vero cells, CC50: 48 h
Method: The cytotoxicity of hylin-Pul3 and dHP3-84 peptides was evaluated on Vero cells procured from the Asociación Banco Argentino de Células (ABAC; Buenos Aires, Argentina). Cell viability was determined using the Neutral Red Uptake test (NRU) test, following a previously described methodology. The Vero cells were cultured in Minimum Essential Medium (MEM) supplemented with 8% fetal calf serum (FCS), 50 μg/mL gentamicin, and 2 mM glutamine. The cells were monitored by observing their morphological changes after 24 and 48 h of incubation.
For the NRU assay, the cells were seeded in 96-well culture plates at a density of 1 × 10^5 cells per well. The cell monolayers were treated with increasing concentrations of the peptide solutions (25–500 μg/mL) for 48 h in triplicate. The monolayers incubated with MM only were used as the control. Following exposure, the culture medium was replaced with 150 μL of a […] neutral red solution in MEM. After incubation at 37 °C for 3 h, the dye medium was discarded and the wells were gently washed with PBS. The intracellular dye was extracted using a mixture of acetic acid, ethanol, and water (1:50:49). After gentle agitation for 10 min, the absorbance values were measured at 540 nm.
The relative cell viability was calculated as a percentage of the NRU observed in the untreated control groups. The cell survival fraction was determined using the following formula: (4) Survival Fraction % (SF%)=D.O. treated cells/D.O. control cells×100

E. coli (ATCC 25922) = test: Synergistic checkerboard assay; assay type: cell-based, Escherichia coli
Method: Briefly, working solutions of the peptides were prepared and serially diluted by half across the rows and columns of a microplate, ensuring that each well contained a unique combination of peptide concentrations. The starting concentrations corresponded to the respective MIC values of each peptide, followed by two-fold serial dilutions.
Each well was filled with 50 µL of the peptide solution (individual or combined) and 50 µL of a bacterial suspension (1 × 10^6 CFU/mL), resulting in a final bacterial concentration of 5 × 10^5 CFU/mL. The individual peptide solutions served as positive controls, while the MH medium was employed as a negative control. The microplates were incubated at 37 °C overnight. The test was performed in three independent experiments. The fractional inhibitory concentrations index (ΣFIC) was calculated using the following equation: (1) ∑FIC =MIC(A) in combination/MIC(A) alone+MIC(B) in combination /MIC(B) alone
The FIC index (ΣFIC) was interpreted as follows: ΣFIC ≤ 0.5 indicated synergy; 0.5 < ΣFIC ≤ 4 indicated no effect; and 4 < ΣFIC indicated antagonism.

[7] = DPPH radical-scavenging activity; conditions: peptides 0.1, 0.05, 0.025 mg/mL, 30 min dark 25 °C, absorbance 515 nm, triplicate
Method: A stock solution of 60 µM 1,1-diphenyl-2-picrylhydrazyl (DPPH) was prepared in ethanol, with its absorbance adjusted to 0.7 at 515 nm immediately before the assay using a Shimadzu 1240 UV–visible spectrophotometer (Kyoto, Japan). The peptides were dissolved in PBS, and 20 µL aliquots of each peptide solution were incubated with 180 µL of the ethanolic DPPH solution in triplicate, at final concentrations of 0.1, 0.05, and 0.025 mg/mL. For the negative control, 20 µL of PBS was mixed with 180 µL of the DPPH solution, while 20 µL of Trolox (6-hydroxy-2,5,7,8-tetramethylchroman-2-carboxylic acid) served as the positive control and standard. The mixtures were incubated in the dark at 25 °C for 30 min, after which, the absorbance was measured at 515 nm. The reduction in absorbance, indicative of DPPH-scavenging activity, was compared to a standard curve. The results were expressed as milligrams of Trolox equivalents per milligram of peptide (mg Trolox equivalents/mg of peptide).

ABTS assay = conditions: peptides 0.05, 0.025, 0.0125 mg/mL, 1 h dark, absorbance 734 nm, triplicate
Method: The 2,2-azinobis-3-ethylbenzothiazoline-6-sulfonic acid (ABTS^+) free radical-scavenging activity was determined following the method in [38]. The ABTS⁺ radical cation was generated by diluting a 245 mM ammonium persulfate (APS) solution at a ratio of 1:100 with a 7 mM ABTS solution, followed by overnight incubation in the dark at room temperature. The ABTS^+ solution was then diluted with water to obtain an absorbance of 0.70 at 734 nm immediately before the assay using a Shimadzu 1240 UV-visible spectrophotometer (Kyoto, Japan). The peptides were dissolved in PBS, and 10 µL aliquots of each peptide solution were incubated with 190 µL of the ABTS^+ solution in triplicate, at final concentrations of 0.05, 0.025, and 0.0125 mg/mL. After a 1 h incubation in the dark, the absorbance was measured at 734 nm. The radical-scavenging activity was quantified against a standard curve, with the results expressed as milligrams of Trolox equivalents per milligram of peptide.

Row | Substance | Antimicrobial Activity (MIC) A. baumannii ATCC 13304 [1] | Reduction in MIC against A. baumannii compared to hylin-Pul3 [1] | Antimicrobial Activity (MIC) E. coli ATCC 25922 [2] | Reduction in MIC against E. coli compared to hylin-Pul3 [2] | Antimicrobial Activity (MIC) K. pneumoniae ATCC 13883 [3] | Antimicrobial Activity (MIC) S. aureus ATCC 25923 [4] | Antimicrobial Activity (MIC) S. mutans ATCC 25175 [5] | Antiviral Activity, viral inhibition [6] | Cytotoxicity in Vero cells, MNCC (Vero cells) | CC50, concentration inducing 50% cell death in Vero cells (Vero cells) | Cytotoxicity in Vero cells, CC50 (Vero cells) | Lower MIC than the original peptide against K. pneumoniae ([3]; versus hylin-Pul3) | Synergistic Activity, FIC Index (ΣFIC) (E. coli (ATCC 25922); combination of dHP3-84 and dHP3-50.137, E. coli ATCC 25922, 5 × 10^5 CFU/mL, 37 °C overnight, three independent experiments, ΣFIC ≤ 0.5 = synergy) | Improvement of combined activity compared to each peptide individually (E. coli (ATCC 25922); dHP3-84 + dHP3-50.137, E. coli) | Antioxidant activity DPPH [7] | Antioxidant activity ABTS (ABTS assay)
1 | RLGALIPAIRGAIKKLIKK-NH2 [dHP3-50] | 6.6 ± 2 µM | 4 fold | 8.0 ± 0.0 µM | 4 fold | 64.0 ± 0.0 µM | 18.6 ± 6.5 µM | 8.0 ± 0.0 µM |  |  |  |  |  |  |  |  | 
2 | RRIALIPAIRGAIKKLIKK-NH2 [dHP3-50.190] | 16.0 ± 0.0 µM |  | 9.3 ± 3.2 µM |  | >64 µM | 29.3 ± 6.5 µM | 32.0 ± 0.0 µM |  |  |  |  |  |  |  |  | 
3 | FLGALIPAIAGAIGGLIRK-NH2 [hylin-Pul3, reference compound] | 32.0 ± 0.0 µM |  | 32.0 ± 0.0 µM |  | >64 µM | 7.3 ± 1.6 µM | 4.6 ± 1.6 µM | 0% | 13.5 µM | 80 µg/mL | 43.2 µM |  |  |  |  | 
4 | RLGKLIPRIAKAIGRLIRK-OH [dHP3-84] | 8.0 ± 0.0 µM | 4 fold | 8.0 ± 0.0 µM | 4 fold | 18.6 ± 6.5 µM | 9.3 ± 3.3 µM | 7.3 ± 1.6 µM | 70% | 57.6 µM | 230 µg/mL | 105.9 µM | 4 fold | 0.5 | 2 fold |  | 
5 | LWPAIRGAIKKLIKK-NH2 [dHP3-31] | 9.3 ± 3.2 µM | 4 fold | 16.0 ± 0.0 µM | 4 fold | >64 µM | 37.3 ± 13.1 µM | 18.7 ± 6.5 µM |  |  |  |  |  |  |  | did not reveal significant activity | 0.14 mg Trolox/mg

— PMC11939955, “Enhancing Antimicrobial Peptides from Frog Skin: A Rational Approach” (Biomolecules, 2025)
